Experimental data published in patent US20220202052A1, “AROMATIC ALKAMIDES AND METHODS OF USE THEREOF IN TASTE MODULATION” (INTERNATIONAL FLAVORS & FRAGRANCES INC., priority 2019, published 2022).

Key:
Assay type in all cases: in vivo, human
[1] = Trained taste panel, individual alkamides and blend vs ethanol extract; conditions: 5% pea protein isolate with 200 μl ethanol, levels per sample in Table 12; for Liking Score: 1 is best, 10 is worst
Protocol: Additional compositions were prepared (Table 12) and assessed by a trained taste panel for taste modulating activity as compared to an ethanol extract of L. meyenii. The protein control sample was a 5% pea protein isolate solution with 200 μl of ethanol added thereto.

[2] = Sensory analysis of aromatic alkamide fractions by trained taste panel; conditions: 0.5 ppm in 4% pea protein isolate solution
Protocol: Sensory analysis of the aromatic alkamides was carried out. Specifically, each isolated fraction, corresponding to each of the aromatic alkamides in Table 7 (samples 14 to 21) (0.5 ppm), was added to a 4% pea protein isolate solution and the ability of the fraction to mask protein off-taste, bitterness, and/or astringency was assessed by a trained taste panel.

[3] = Modulation of umami perception, trained panel; conditions: 0.5 ppm in 0.4% Chicken Bouillon solution
Protocol: The ability of L. meyenii extracts and fractions thereof to modulate umami flavors was determined by adding 25 ppm of an ethanolic extract of L. meyenii root (Example 1), 2 ppm of an ethyl acetate layer of a crude ethanolic extract, or 0.5 ppm of a fraction enriched in N-benzyloctadecanamide to a 0.4% Chicken Bouillon solution (Knorr Chicken Bouillon). Sensory analyses of the above-referenced compositions were carried out by a trained panel, the results of which are presented in Table 10.

SMILES | Off Taste: Astringent (intensity) [1] | Off Taste: Beany (intensity) [1] | Off Taste: Bitter (intensity) [1] | Off Taste: Burnt (intensity) [1] | Off Taste: Chalky (intensity) [1] | Off Taste: Earthy (intensity) [1] | Off Taste: Fishy (intensity) [1] | Off Taste: Gritty (intensity) [1] | Off Taste: Metallic/Unpleasant (intensity) [1] | Off Taste: Nutty (intensity) [1] | Off Taste: Sour (intensity) [1] | Liking Score [1] | Sensory taste in 4% protein base [2] | Chicken Bouillon sensory (umami modulation) [3]
CCCCCCCCCCCCCCCC(=O)NCc1ccccc1 [Macamide 1, N-benzylhexadecanamide] | 2 | 3 | 2 | 0 | 2 | 2 | 0 | 2 | 1 | 0 | 2 | 1 | – | –
CCCCCCCCC/C=C/C=C/C(=O)CCCC(=O)NCc1ccccc1 [Macamide 2] | 2 | 5 | 3 | 0 | 2 | 2 | 0 | 2 | 1 | 2 | 3 | 2 | Good masking. | –
CCCCC/C=C\C/C=C\CCCCCCCC(=O)NCc1ccccc1 [N-Benzyl linoleamide, N-Benzyllinoleamide] | – | – | – | – | – | – | – | – | – | – | – | – | Little masking. | –
CC/C=C\C/C=C\C/C=C\CCCCCCCC(=O)NCc1ccccc1 [N-Benzyl linolenamide, N-Benzyllinolenamide] | – | – | – | – | – | – | – | – | – | – | – | – | Moderate masking. | –
CCCCCCCCCCCCCCCCCC(=O)NCc1ccccc1 [N-Benzyloctadecanamide, N-Benzyl octadecanamide] | 2 | 3 | 2 | 0 | 2 | 2 | 0 | 2 | 2 | 2 | 2 | 1 | – | Showed some enhancement
CCCCCCCC/C=C\CCCCCCCC(=O)NCc1ccccc1 [N-Benzyloleamide] | 4 | 5 | 2 | 0 | 6 | 2 | 0 | 4 | 2 | 2 | 2 | 2 | Little masking. | –
